In patent publication US20120101230A1, “HIGH-DENSITY POLYMER SURFACE COATING TO IMMOBILIZE CHEMICAL OR BIOLOGICAL MOLECULES” (priority 2009, published 2012):
Structures can show the parent of a compound that is named as a salt.

Key:
[1] = molecular target: T1, recombinant human trypsin (Homo sapiens, UniProt P07477); assay: Small molecule binding to trypsin-immobilized surface, PWV shift
T1 construct: purchased Polymum Lot#H149L091.1
Protocol: (§1) Trypsin was tested to determine what other proteins could be successfully immobilized on high-density polymer surfaces. Like above, high-density polymer surfaces were activated by adding 0.34 M EDC/10 mM NHS in water for 10 min, followed by removing the solution. 50 μg/ml trypsin in non-amine containing buffer was added to the wells, and was incubated for up to around 700 min, followed by a wash first with acetic buffer, then PBS. The trypsin was recombinant human protein from Polymum Lot#H149L091.1. The results of trypsin binding over time, as a function of delta PWV, are shown in FIG. 14, as well as an NHS control. 90% of the protein was immobilized within less than 2 hr. Benzamidine was then added for binding to the immobilized trypsin by adding benzamidine at a final concentration of 67 μM in PBS, pH 7.4. Benzamidine has a molecular weight of 120.15, and an expected delta PWV or PWV shift of 36 pm.
(§2) Antipain was then added for binding to the low COOH density surfaces. 49.2, 12.3, 3.1, and 1 μM antipain dihydrochloride in PBS was prepared from a microbial source and was added to the 3.8 nm delta PWV shift from trypsin immobilization. 49.2 μM antipain was also added to no trypsin control wells (N=4). […] The theoretical shift of antipain of 1:1 binding on 3.8 nm delta PWV shift trypsin surface is […]. The control, 49.2 μM antipain in a well with no trypsin immobilization, had […] bulk or NSB PWV shift.
(§3) Leupeptin was also added for binding to the low COOH density surfaces. 88, 22, 5.5, and 0 μM leupeptin dihydrochloride solutions in PBS were prepared and were added to the 3.8 nm delta PWV shift trypsin immobilization surfaces. 88 μM leupeptin was also added to no trypsin control wells (N=2). […] The theoretical shift of leupeptin of 1:1 binding on 3.8 nm delta PWV trypsin is […]. The control 88 μM leupeptin with no trypsin immobilization had 12 nm bulk or NSB shift.

[2] = molecular target: avidin (Gallus gallus, UniProt P02701); assay: Biotin binding to immobilized avidin on PAA surfaces
Chain of avidin (P02701 25-152, species assumed): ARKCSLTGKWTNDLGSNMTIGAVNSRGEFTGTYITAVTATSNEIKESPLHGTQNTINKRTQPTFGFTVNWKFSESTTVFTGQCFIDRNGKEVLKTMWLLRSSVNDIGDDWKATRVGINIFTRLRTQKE
Protocol: (§4) In order to immobilize protein to the novel surfaces, the high-density polymer surfaces of Examples 2 and 3 were activated by adding 0.34 M EDC/10 mM NHS in water for 10 min, followed by removing the solution. In an initial test of protein immobilization capability and protein activity following immobilization, biotin binding to immobilized streptavidin was used—20 μL of either 200 μg/ml avidin or streptavidin in a non-amine containing buffer (10 mM acetate buffer, pH 5.0) were added to the surface and incubated for 3 hr, followed by a wash first with the non-amine containing buffer, then PBS. Biotin was then added for binding to the immobilized avidin or streptavidin by using a 20 μL of a biotin solution in PBS to result in a final Biotin concentration of approximately 58 μM (N=4).
(§5) 20 μL of either 0, 50, or 200 μg/ml avidin or streptavidin in a non-amine containing buffer were added to the wells after they were pre-activated for 10 min with EDC/NHS, and incubated for 3 hr. This was then followed by a wash first with the non-amine containing buffer. Biotin was then added for binding to the immobilized avidin or streptavidin by adding 20 μL of a biotin solution in PBS to result in a final Biotin concentration of approximately 58 μM (N=4).

[3] = molecular target: streptavidin (Streptomyces avidinii, UniProt P22629); assay: Biotin binding to immobilized streptavidin on PAA surfaces
Chain of streptavidin (P22629 25-183, species assumed): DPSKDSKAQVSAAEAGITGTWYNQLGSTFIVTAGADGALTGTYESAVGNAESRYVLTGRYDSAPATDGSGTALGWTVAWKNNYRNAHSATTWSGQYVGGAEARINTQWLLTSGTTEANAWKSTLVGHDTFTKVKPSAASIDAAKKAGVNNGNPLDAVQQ
Protocol: as §4, §5

[4] = Bulk or NSB PWV shift in no trypsin control wells; conditions: 88 μM leupeptin, no trypsin immobilization
Protocol: as §2, §3

[5] = Streptavidin/avidin immobilization on high-density polymer (PAA) surfaces, SWS biosensor PWV shift; type: binding
Protocol: as §4
The initial test was followed up by reacting different concentrations of avidin or streptavidin with the different high-density polymer surfaces.
as §5

[6] = Trypsin immobilization on high-density polymer surfaces, delta PWV; type: binding; conditions: for course of immobilization: 10 mM acetate buffer pH 5.0, 3 hr
Protocol: as §1
Trypsin binding was also measured on both high and low COOH density surfaces. 100 μg of human recombinant trypsin in 10 mM acetate buffer pH 5.0 was immobilized on either a high or low COOH density surface for 3 hr.

[7] = PAA coated under theta condition, biotin approximately 58 μM
[8] = low COOH density surfaces (versus high)
[9] = PAA 100K, high COOH density surface, coated with 1/6 dilution NHS/EDC (theta condition) compared to the other dilutions
[10] = PAA 100K, low COOH density surface, coated with 1/6 dilution NHS/EDC (theta condition) compared to the other dilutions
[11] = PAA 250K, high COOH density surface, coated with 1/6 and 1/8 dilution NHS/EDC (theta condition) compared to the other dilutions
[12] = PAA 250K, low COOH density surface, coated with 1/6 and 1/8 dilution NHS/EDC (theta condition) compared to the other dilutions

**Q.** Which “expected delta PWV or PWV shift” value ([1]; benzamidine 67 μM in PBS, pH 7.4) does the source give for `N=C(N)c1ccccc1` [Benzamidine] here?
**A.** The value was 36 pm.

**Q.** Which biotin binding [2, 7] does the source give for `O=C(O)CCCC[C@@H]1SC[C@@H]2NC(=O)N[C@@H]21` [Biotin] here?
**A.** The biotin binding was “higher biotin binding”.

**Q.** What about the “activity of avidin for biotin interaction” value [2, 8] of the same molecule?
**A.** Its value is “more activity”.

**Q.** What about the biotin binding [3, 7] of the same molecule?
**A.** Its biotin binding is “higher biotin binding”.

**Q.** And the “activity of streptavidin for biotin interaction” value [3, 8]?
**A.** The value was “more activity”.

**Q.** Which results are given for `CC(=O)N[C@@H](CC(C)C)C(=O)N[C@@H](CC(C)C)C(=O)N[C@H](C=O)CCCNC(=N)N` [leupeptin, leupeptin dihydrochloride]?
**A.** binding to immobilized trypsin (titration) ([1]; 3.8 nm delta PWV trypsin on low COOH density surface): Titration of leupeptin was observed; binding to immobilized trypsin ([1]; 7.2 nm delta PWV trypsin on high COOH density surface): No positive result was observed; theoretical shift of 1:1 binding ([1]; on 3.8 nm delta PWV shift trypsin surface): 66 nm; bulk or NSB shift [4]: 12 nm

**Q.** Which “protein immobilization (PWV)” value [5, 9] does the source give for avidin here?
**A.** Its value is “More avidin was immobilized”.

**Q.** What about the “protein immobilization (PWV)” value [5, 10] of the same molecule?
**A.** Its value is “More avidin was immobilized”.

**Q.** And the “protein immobilization (PWV)” value [5, 11]?
**A.** The value was “More avidin was immobilized”.

**Q.** What about the “protein immobilization (PWV)” value [5, 12] of the same molecule?
**A.** Its value is “More avidin was immobilized”.

**Q.** Which “protein immobilization (PWV)” value [5, 9] does the source give for streptavidin here?
**A.** Its value is “More streptavidin was immobilized”.

**Q.** And the “protein immobilization (PWV)” value [5, 10]?
**A.** Its value is “More streptavidin was immobilized”.

**Q.** And the “protein immobilization (PWV)” value [5, 11]?
**A.** Its value is “More streptavidin was immobilized”.

**Q.** What about the “protein immobilization (PWV)” value [5, 12] of the same molecule?
**A.** The value was “More streptavidin was immobilized”.

**Q.** With trypsin as the molecule, how does the “time within which 90% of the protein was immobilized” value ([6]; 50 μg/ml trypsin in non-amine containing buffer) read?
**A.** Its value is “less than 2 hr”.

**Q.** What about the “delta PWV of trypsin immobilization” value ([6]; high COOH density surface) of the same molecule?
**A.** The value was 7.2 nm.

**Q.** And the course of immobilization ([6]; high COOH density surface)?
**A.** The course of immobilization was “immobilized rapidly”.

**Q.** And the “delta PWV of trypsin immobilization” value ([6]; low COOH density surface)?
**A.** The value was 3.8 nm.

**Q.** What about the course of immobilization ([6]; low COOH density surface) of the same molecule?
**A.** The course of immobilization was “slow but rising constantly”.
